# Experimental data from PubChem BioAssay (NCI).
#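 Step 1: Grow cells in 96-well plates. Step 2: Expose to compound for 48 hours at 5 concentrations. Step 3: Interpolate endpoints linearly; if unreached, use highest concentration. Here, GI50 denotes the concentration required for 50% inhibition of growth. Definition used: TGI = concentration required for complete inhibition of growth.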
# How the values were obtained:
# Assay in all cases: growth of human tumour cells (NCI), 48 h
# [1] = test system: 786-0 renal
# [2] = test system: A498 renal
# [3] = test system: A549 NSCLC
# [4] = test system: ACHN renal
# [5] = test system: BT-549 breast
# [6] = test system: CAKI-1 renal
# [7] = test system: CCRF-CEM leukemia
# [8] = test system: COLO 205 colon
# [9] = test system: DU-145 prostate
# [10] = test system: EKVX NSCLC
# [11] = test system: HCC-2998 colon
# [12] = test system: HCT-116 colon
# [13] = test system: HCT-15 colon
# [14] = test system: HL-60(TB) leukemia
# [15] = test system: HOP-62 NSCLC
# [16] = test system: HOP-92 NSCLC
# [17] = test system: HS 578T breast
# [18] = test system: HT29 colon
# [19] = test system: IGROV1 ovarian
# [20] = test system: K-562 leukemia
# [21] = test system: KM12 colon
# [22] = test system: LOX IMVI melanoma
# [23] = test system: M14 melanoma
# [24] = test system: MALME-3M melanoma
# [25] = test system: MCF7 breast
# [26] = test system: MDA-MB-231 breast
# [27] = test system: MDA-MB-435
# [28] = test system: MOLT-4 leukemia
# [29] = test system: NCI-H226 lung
# [30] = test system: NCI-H23 lung
# [31] = test system: NCI-H460 lung
# [32] = test system: NCI-H522 lung
# [33] = test system: NCI/ADR-RES ovarian
# [34] = test system: OVCAR-3 ovarian
# [35] = test system: OVCAR-4 ovarian
# [36] = test system: OVCAR-5 ovarian
# [37] = test system: OVCAR-8 ovarian
# [38] = test system: PC-3 prostate
# [39] = test system: RPMI-8226 leukemia
# [40] = test system: RXF 393 renal
# [41] = test system: SF-268 CNS
# [42] = test system: SF-295 CNS
# [43] = test system: SF-539 CNS
# [44] = test system: SK-MEL-2 melanoma
# [45] = test system: SK-MEL-28 melanoma
# [46] = test system: SK-MEL-5 melanoma
# [47] = test system: SK-OV-3 ovarian
# [48] = test system: SN12C renal
# [49] = test system: SNB-19 CNS
# [50] = test system: SNB-75 CNS
# [51] = test system: SR leukemia
# [52] = test system: SW-620 colon
# [53] = test system: T-47D breast
# [54] = test system: TK-10 renal
# [55] = test system: U251 CNS
# [56] = test system: UACC-257 melanoma
# [57] = test system: UACC-62 melanoma
# [58] = test system: UO-31 renal
smiles,measurement,setting,value
COc1ccc(COc2cc3oc(=O)c4cc(C(C)O)ccc4c3cc2OC)cc1 (centres undefined),GI50,[1],13.1 µM
same,TGI,[1],56.7 µM
same,GI50,[2],19.2 µM
same,TGI,[2],82.2 µM
same,GI50,[3],14 µM
same,TGI,[3],> 100 µM
same,GI50,[4],23.1 µM
same,TGI,[4],> 100 µM
same,GI50,[5],10.1 µM
same,TGI,[5],49.4 µM
same,GI50,[6],15.3 µM
same,TGI,[6],> 51.1 µM
same,GI50,[7],> 21.6 µM
same,TGI,[7],> 100 µM
same,GI50,[8],> 22.7 µM
same,TGI,[8],> 100 µM
same,GI50,[9],45.5 µM
same,TGI,[9],> 100 µM
same,GI50,[10],19.7 µM
same,TGI,[10],> 100 µM
same,GI50,[11],> 31.4 µM
same,TGI,[11],> 100 µM
same,GI50,[12],13.3 µM
same,TGI,[12],> 100 µM
same,GI50,[13],12 µM
same,TGI,[13],> 100 µM
same,TGI,[14],> 100 µM
same,GI50,[15],8.15 µM
same,TGI,[15],29.4 µM
same,GI50,[16],4.22 µM
same,TGI,[16],33.5 µM
same,GI50,[17],8.79 µM
same,TGI,[17],> 67.4 µM
same,TGI,[18],> 100 µM
same,GI50,[19],11.5 µM
same,TGI,[19],> 83.1 µM
same,GI50,[20],73.4 µM
same,TGI,[20],> 100 µM
same,GI50,[21],26.2 µM
same,TGI,[21],> 100 µM
same,GI50,[22],18.7 µM
same,TGI,[22],> 100 µM
same,GI50,[23],> 22.5 µM
same,TGI,[23],> 100 µM
same,GI50,[24],10.2 µM
same,TGI,[24],40.2 µM
same,GI50,[25],9.49 µM
same,TGI,[25],> 100 µM
same,GI50,[26],9.6 µM
same,TGI,[26],97.5 µM
same,GI50,[27],4.33 µM
same,TGI,[27],> 22.9 µM
same,GI50,[28],> 23 µM
same,TGI,[28],> 100 µM
same,GI50,[29],12.3 µM
same,TGI,[29],49.8 µM
same,GI50,[30],16.6 µM
same,TGI,[30],> 86.6 µM
same,GI50,[31],12.6 µM
same,TGI,[31],> 100 µM
same,GI50,[32],10.1 µM
same,TGI,[32],> 95.3 µM
same,GI50,[33],8.4 µM
same,TGI,[33],44.4 µM
same,GI50,[34],17.1 µM
same,TGI,[34],63.1 µM
same,GI50,[35],10.1 µM
same,TGI,[35],66.2 µM
same,GI50,[36],41.5 µM
same,TGI,[36],> 100 µM
same,GI50,[37],14.8 µM
same,TGI,[37],52.2 µM
same,GI50,[38],14.7 µM
same,TGI,[38],> 100 µM
same,GI50,[39],> 28.8 µM
same,TGI,[39],> 100 µM
same,GI50,[40],5.33 µM
same,TGI,[40],15.6 µM
same,GI50,[41],9.89 µM
same,TGI,[41],40.5 µM
same,GI50,[42],11.6 µM
same,TGI,[42],65.5 µM
same,GI50,[43],9.97 µM
same,TGI,[43],33 µM
same,GI50,[44],7.69 µM
same,TGI,[44],30 µM
same,GI50,[45],14.3 µM
same,TGI,[45],> 91.7 µM
same,GI50,[46],12.1 µM
same,TGI,[46],> 40.7 µM
same,GI50,[47],13.2 µM
same,TGI,[47],45.8 µM
same,GI50,[48],21.2 µM
same,TGI,[48],> 100 µM
same,GI50,[49],16 µM
same,TGI,[49],99.3 µM
same,GI50,[50],2.08 µM
same,TGI,[50],11.1 µM
same,GI50,[51],49.7 µM
same,TGI,[51],> 100 µM
same,GI50,[52],> 22.4 µM
same,TGI,[52],> 100 µM
same,GI50,[53],12.7 µM
same,TGI,[53],> 100 µM
same,GI50,[54],17.4 µM
same,TGI,[54],62.6 µM
same,GI50,[55],10.5 µM
same,TGI,[55],> 71.6 µM
same,GI50,[56],19.7 µM
same,TGI,[56],> 74.6 µM
same,GI50,[57],8.47 µM
same,TGI,[57],34 µM
same,GI50,[58],14.7 µM
same,TGI,[58],> 100 µM
